Inconclusive results are not listed. Active and inactive are the calls of the source.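 Rule for the calls: active = compounds lowering viability whose fitted half-maximal concentration is at most tenfold the top tested dose; inconclusive = flat curve with viability loss of 30 to 70%, or bad fit; inactive = the rest.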

This passage reports activity change, negative = fewer viable cells and AC50 results from PubChem BioAssay AID540316 (Broad Institute, 2011).

System in one experiment: not listed separately
Briefly: cytotoxicity toward BJeH engineered cells – cell-based, plate reader, dry powder, set 4, counter-screen for Ras selective lethality project, dose response (AID 540316). The settings on record: BJeH fibroblasts viability, Alamar Blue fluorescence, 48 h; at 48 µM (top of the series).
On to `Cc1onc(CC(=O)N2CCN(C(c3ccc(F)cc3)c3ccc(F)cc3)CC2)c1[N+](=O)[O-]`, for which the activity change, negative = fewer viable cells was -13.5% (inactive).

As to `Cc1onc(C(=O)NCCNC(c2ccccc2)c2ccccc2)c1[N+](=O)[O-]`, the activity change, negative = fewer viable cells was -11.9% (inactive).

`Cc1onc(C(=O)N2CCCN(C(c3ccccc3)c3ccccc3)CC2)c1[N+](=O)[O-]`: the activity change, negative = fewer viable cells is -10.7% (inactive).

Take `Cc1onc(C(=O)N2CCN(C(c3ccccc3)c3ccccc3)CC2)c1[N+](=O)[O-]`: the activity change, negative = fewer viable cells is -11.7% (inactive).

For `Cc1onc(C(=O)N2CCN(Cc3ccccc3)CC2)c1[N+](=O)[O-]`, the activity change, negative = fewer viable cells was -0.245% (inactive).

The subject of a further experiment is BJeH fibroblasts viability, Alamar Blue fluorescence, 48 h. Described as above.
Conditions: not given
As to `O=C(c1ccc([N+](=O)[O-])o1)N1CCN(C(c2ccc(F)cc2)c2ccc(F)cc2)CC1`, the AC50 was 14.2 µM.

On to `O=C(NCCNC(c1ccccc1)c1ccccc1)c1ccc([N+](=O)[O-])o1`, for which the AC50 is 5.31 µM.

Regarding `COC(=O)c1ccc([C@@H]2c3[nH]c4ccccc4c3C[C@@H](C(=O)OC)N2C(=O)CCl)cc1`, the concentration at half-maximal activity (AC50) is 2.68 µM.

Take `COc1ccc(C(c2ccc(OC)cc2)N2CCN(C(=O)c3ccc([N+](=O)[O-])o3)CC2)cc1`: the AC50 is 6.76 µM.

Turning to `CCOc1ccccc1-n1c(C(C)N2CCN(C(=O)COc3ccc(Cl)cc3)CC2)nc2ccccc2c1=O` (stereo not given), the AC50 is 7.93 µM.
